This is an account of results in PubChem BioAssay (NCI).

What all share (assay): NCI tumour cell line growth inhibition, 48 h
Experiment [1] concerns KM12 colon.
Experiment [2] has as its system T-47D breast.
For experiment [3], the system named is HOP-92 NSCLC.
Experiment [4] has as its system SR leukemia.
The subject of experiment [5] is SNB-19 CNS.
Experiment [6] deals with NCI-H522 lung.
Experiment [7] concerns UACC-257 melanoma.
Experiment [8] deals with HS 578T breast.
Experiment [9] relates to 786-0 renal.
For experiment [10], the system named is TK-10 renal.

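Following 48 hours of exposure in 96-well plates, responses at five concentrations were used to interpolate endpoints linearly. GI50 is the concentration that inhibits growth by half. TGI denotes the concentration required for complete inhibition of growth.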

For `O=C(Nc1ccc(Cl)cc1)c1ccc([N+](=O)[O-])o1`, the GI50 in [1] was 2.35 µM; in experiment [2], 4.42 µM; in experiment [3], 10.4 µM; in experiment [4], 0.553 µM; in experiment [5] it was 2.6 µM; in experiment [6] it was 0.642 µM. Also, the GI50 in experiment [7] is 1.97 µM; in experiment [8] it was 2.81 µM; in experiment [9] it was 1.91 µM; in [10], 2.4 µM. Besides, the TGI in experiment [1] came out at 6.38 µM; in [2] it was 23.2 µM; in experiment [3], 27.2 µM; in experiment [4], 16.5 µM; in [5], 10.6 µM; in experiment [6], 1.76 µM. The TGI in experiment [7] was 5.25 µM; in experiment [8], 18.6 µM; in [9], 4.05 µM; in experiment [10], 5.32 µM.

In the case of `COc1cc(Nc2ncc3c(C)nc(-c4cccc(Oc5ccccc5)c4)n3n2)cc(OC)c1OC`, the GI50 in experiment [1] is 5.95 µM; in experiment [2], 4.51 µM; in experiment [3], 6.29 µM; in [4] it was 5.99 µM; in experiment [5], 12.1 µM; in [6], 4.94 µM. Moreover, the GI50 was 10.4 µM in experiment [7], 7.51 µM in experiment [8], 6.2 µM in experiment [9] and 3.52 µM in experiment [10]. For the same compound, the TGI is over 25 µM in [1]; 17.2 µM in experiment [2]; over 24.1 µM in experiment [3]; over 21.4 µM in experiment [4]; over 25 µM in experiment [5]; over 17.9 µM in experiment [6]. The TGI was over 25 µM in experiment [7], over 25 µM in experiment [8], over 25 µM in experiment [9] and over 20.6 µM in experiment [10].

As to `O=C1Nc2ccccc2/C1=C/c1ccccc1`, the TGI in experiment [1] came out at 33.2 µM; in experiment [2] it was 41.9 µM; in experiment [3] it was 25.5 µM; in experiment [4], 48.1 µM; in experiment [5], 30 µM; in [6] it was 33.9 µM. Also, the TGI in experiment [7] is 29 µM; in experiment [8], 91.8 µM; in experiment [9] it was 28.4 µM; in [10], 45.1 µM.

As for `COc1cc(C(=O)/C=C/c2c(-c3ccc(F)cc3)nc3ncccn23)cc(OC)c1OC`, the GI50 was 1.69 µM in experiment [1]; 2.09 µM in experiment [2]; 1.77 µM in experiment [3]; 2.28 µM in [4]; 3.12 µM in experiment [5]; 2.87 µM in experiment [6]. Also, the GI50 was 3.73 µM in experiment [7], 2.01 µM in experiment [8], 2.76 µM in experiment [9] and 3.25 µM in [10]. Besides, the TGI was 4.37 µM in experiment [1]; 9.22 µM in [2]; 92.9 µM in [3]; over 100 µM in experiment [4]; 15.5 µM in experiment [5]; 10.6 µM in [6]. Also, the TGI was over 100 µM in [7], 11.2 µM in experiment [8], 9.6 µM in experiment [9] and 22.6 µM in experiment [10].
